The values that follow come from patent US20260209203A1, “Heterocyclic Compounds as Modulators of S1P5” (Celgene Corporation, priority 2022, published 2026).

In the experiment the target is S1P5 (Homo sapiens, UniProt Q9H228). Briefly: [35S]-GTPγS functional binding assay on CHO-S1P5 membranes. In kind it is biochemical. Conditions: membranes of CHO cells expressing recombinant S1P5; measure of S1P5 agonism. On the procedure: CHO cells expressing recombinant S1P5 receptors were cultured in 500 cm^2 culture trays and, once confluent, rinsed and detached with cell-lifting buffer (10 mM HEPES, 154 mM NaCl, 6.85 mM EDTA, pH 7.4). Cells were then pelleted by centrifugation, resuspended, and homogenized in membrane preparation buffer (10 mM HEPES and 10 mM EDTA, pH 7.4) using a Polytron PT 1200E homogenizer (Kinematica, Luzern, Switzerland). Cellular proteins were pelleted by centrifugation at 48,000×g at 4° C. for 30 minutes. The resulting supernatant was discarded, and the pellet was re-suspended again in membrane preparation buffer, homogenized for a second time, and then centrifuged again as described above. The final cellular protein pellet was suspended in ice cold resuspension buffer (10 mM HEPES and 0.1 mM EDTA, pH 7.4), divided into aliquots, and stored at −80° C. until use.
Chain of S1P5 (Q9H228 whole entry, species assumed): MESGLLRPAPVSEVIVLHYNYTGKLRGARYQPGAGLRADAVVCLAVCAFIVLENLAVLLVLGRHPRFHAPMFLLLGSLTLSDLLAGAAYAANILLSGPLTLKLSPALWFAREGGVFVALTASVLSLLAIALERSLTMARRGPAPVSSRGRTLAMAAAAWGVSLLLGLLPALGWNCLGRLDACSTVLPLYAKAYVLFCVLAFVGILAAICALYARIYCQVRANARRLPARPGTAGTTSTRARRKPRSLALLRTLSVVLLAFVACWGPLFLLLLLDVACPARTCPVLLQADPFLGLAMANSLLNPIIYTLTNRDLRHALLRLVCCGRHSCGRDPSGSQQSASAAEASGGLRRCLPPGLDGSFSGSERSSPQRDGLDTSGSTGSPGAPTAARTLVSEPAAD
Functional binding assays for [^35S]-GTPγS were performed in 96-well non-binding surface plates with a final volume of 200 μL. The test compounds were serially diluted in DMSO and added to assay plates using a Tecan D300E digital printer with a total volume of 0.4 μL. The control sphingosine-1-phosphate (S1P) was prepared separately by preparing a 400 μM stock solution from a 100 nmol pellet of SIP in 10 mM Na2CO3 with 2% β-cyclodextrin. The serial dilution of S1P was done using complete assay buffer (20 mM HEPES, 10 mM MgCl2, 100 mM NaCl, 1 mM EDTA, 0.1% fatty acid free bovine serum albumin (BSA), and 30 μg/mL saponin, pH 7.4) and transferred to wells already containing 0.4 μL DMSO. All the wells were then loaded to a total volume of 40 μL of complete assay buffer, except the non-specific binding (NSB) wells. For NSB wells, 40 μL/well of 50 μM GTPγS (Sigma Aldrich, cat #G8634, St. Louis, MO) was added to wells containing 0.4 μL of DMSO. The assay was started by the addition of 120 μL/well of CHO—S1P receptor membrane solution containing 40 μg/mL of membrane protein, 16.67 μM guanosine diphosphate (GDP; Sigma Aldrich, cat #G7127, St. Louis, MO), and 2.5 mg/mL of WGA PVT SPA beads in complete buffer. Assay plates were then sealed and incubated at room temperature with gentle agitation for 30 minutes. Next, 40 μL/well of 1 nM of [^35S]-GTPγS (PerkinElmer, cat #NEG030X250UC, Waltham, MA) in basic assay buffer (20 mM HEPES, 10 mM MgCl2, 100 mM NaCl, and 1 mM EDTA, pH7.4) was added to the assay plates to yield a final concentration of 200 pM and the plates were further incubated for 40 minutes at room temperature with gentle agitation. The assay was terminated by centrifugation of the plates at 1000 rpm for 3 minutes using an Eppendorf 5810R centrifuge (Eppendorf, Hamburg, Germany) and G protein bound radioactivity was quantitated using a MicroBeta2 microplate scintillation counter (PerkinElmer, Waltham, MA). As G protein bound radioactivity directly correlates to receptor activation and coupling to the G protein, this assay is a measure of S1P5 agonism.
(Binding of GTPγS marks nucleotide exchange on a G protein.)

Regarding `Cc1cc(C2CN(c3c(Cl)cccc3Cl)C2)cc(C)c1CN1CCC(C(=O)N2CCCCC2)CC1` [Compound 26, (1-(4-(1-(2,6-dichlorophenyl)-azetidin-3-yl)-2,6-dimethyl-benzyl)-piperidin-4-yl)(piper-idin-1-yl)methanone], the concentration for a half-maximal effect (EC50) was in the range of 1 to 10 µM.

One may read the EC50 as the concentration needed to bring the measured effect to its halfway point.
